Test results taken from ChEMBL document CHEMBL1201862, “PubChem BioAssay data set” (2004).
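Compound exposure: 48 hours, 5 concentrations, 96-well plates. GI50 is the concentration that inhibits growth by half.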 The source made the active and inactive calls. No stated cut-off is given here; in the data, active = GI50 up to about 1.1 µM and inactive = higher.

Columns and labels:
Experiment in all cases: DTP human tumour cell line panel, 48 h
HOP-92 = system: HOP-92
DU-145 = system: DU-145
T47D = system: T47D
Malme-3M = system: Malme-3M
SN12C = system: SN12C
LOX IMVI = system: LOX IMVI
786-0 = system: 786-0
SK-MEL-5 = system: SK-MEL-5
ACHN = system: ACHN
SK-MEL-2 = system: SK-MEL-2
A549 = system: A549
NCI-H23 = system: NCI-H23
SK-OV-3 = system: SK-OV-3
UO-31 = system: UO-31
NCI-H460 = system: NCI-H460
K562 = system: K562
SW-620 = system: SW-620
MDA-MB-231 = system: MDA-MB-231
SF-539 = system: SF-539
NCI-H522 = system: NCI-H522

Row | SMILES | GI50 (HOP-92) | GI50 (DU-145) | GI50 (T47D) | GI50 (Malme-3M) | GI50 (SN12C) | GI50 (LOX IMVI) | GI50 (786-0) | GI50 (SK-MEL-5) | GI50 (ACHN) | GI50 (SK-MEL-2) | GI50 (A549) | GI50 (NCI-H23) | GI50 (SK-OV-3) | GI50 (UO-31) | GI50 (NCI-H460) | GI50 (K562) | GI50 (SW-620) | GI50 (MDA-MB-231) | GI50 (SF-539) | GI50 (NCI-H522)
1 | CCOC(=O)[C@@H](NC(=O)OC(C)(C)C)[C@@H](O)C(=O)OCC | > 100 µM (inactive) | > 100 µM (inactive) | > 100 µM (inactive) | > 100 µM (inactive) | > 100 µM (inactive) | > 100 µM (inactive) | > 100 µM (inactive) | > 100 µM (inactive) | > 100 µM (inactive) | > 100 µM (inactive) | > 100 µM (inactive) | > 100 µM (inactive) | > 100 µM (inactive) | > 100 µM (inactive) | > 100 µM (inactive) | > 100 µM (inactive) | > 100 µM (inactive) | > 100 µM (inactive) |  | 
2 | O=C1C=C/C(=N\N=C(c2ccccc2)c2ccccc2)O1 | > 10 µM (inactive) | > 10 µM (inactive) | > 10 µM (inactive) | > 10 µM (inactive) | > 10 µM (inactive) | > 10 µM (inactive) | > 10 µM (inactive) | > 10 µM (inactive) |  |  | > 10 µM (inactive) | > 10 µM (inactive) | > 10 µM (inactive) |  |  | > 10 µM (inactive) | > 10 µM (inactive) | > 10 µM (inactive) |  | 
3 | CC(C)(C)NC1C2CCC(C)(C1O)C2(C)C (stereo not given) |  | > 100 µM (inactive) | > 100 µM (inactive) | > 100 µM (inactive) |  | > 100 µM (inactive) | > 100 µM (inactive) | > 100 µM (inactive) | 8.63 µM (inactive) | > 100 µM (inactive) | > 100 µM (inactive) | > 100 µM (inactive) | > 100 µM (inactive) | > 100 µM (inactive) | > 100 µM (inactive) | > 100 µM (inactive) | > 100 µM (inactive) | > 100 µM (inactive) | > 100 µM (inactive) | 
4 | N#Cc1cccc2c1Sc1ccccc1N2 | 32.3 µM (inactive) | 40.6 µM (inactive) | 19.2 µM (inactive) | 41.6 µM (inactive) | 39.2 µM (inactive) | 10.4 µM (inactive) | 30.2 µM (inactive) | 0.553 µM (active) | 33.4 µM (inactive) |  | 24.5 µM (inactive) | 21.2 µM (inactive) | 38.9 µM (inactive) | 27.1 µM (inactive) | 32.5 µM (inactive) | 17.4 µM (inactive) | 20.7 µM (inactive) | 24.5 µM (inactive) | 20.4 µM (inactive) | 
5 | COc1ccccc1/C=C/C1=NN(c2cccc(S(=O)(=O)O)c2)C2(C1)C(Cl)C(=O)N2c1nc2ccccc2s1 (stereo not given) |  | 67 µM (inactive) | 12.1 µM (inactive) | > 100 µM (inactive) | > 84.1 µM (inactive) | 29.7 µM (inactive) | 37.8 µM (inactive) | 28.6 µM (inactive) | 57.3 µM (inactive) | > 100 µM (inactive) | 71.4 µM (inactive) | 31.9 µM (inactive) | > 100 µM (inactive) | 16.9 µM (inactive) | 37.8 µM (inactive) | 31.4 µM (inactive) | > 100 µM (inactive) | > 94.6 µM (inactive) | 58.2 µM (inactive) | 9.04 µM (inactive)
6 | CNC(=O)OCCN1c2ccccc2Sc2ccccc21 | 50.4 µM (inactive) | > 100 µM (inactive) | > 100 µM (inactive) | > 100 µM (inactive) | > 100 µM (inactive) | 91.6 µM (inactive) | > 100 µM (inactive) | 50.4 µM (inactive) | 73.6 µM (inactive) |  | 87.1 µM (inactive) | > 100 µM (inactive) | > 100 µM (inactive) | 69.2 µM (inactive) | 86.7 µM (inactive) | > 100 µM (inactive) | > 100 µM (inactive) | 0.64 µM (active) | > 100 µM (inactive) | > 100 µM (inactive)
7 | COc1cc2c(cc1Cl)[n+]([O-])c(C#N)c(N1CCN(c3ccc([N+](=O)[O-])cc3)CC1)[n+]2[O-] |  | 13.8 µM (inactive) | 3.48 µM (inactive) | 14.8 µM (inactive) | 32.6 µM (inactive) | 4.68 µM (inactive) | 12.7 µM (inactive) | 16.6 µM (inactive) | 14.7 µM (inactive) | 49.3 µM (inactive) | 11.6 µM (inactive) | 17.1 µM (inactive) | 23.9 µM (inactive) | 0.938 µM (active) | 7.78 µM (inactive) | 9.29 µM (inactive) | 22.5 µM (inactive) | 41.8 µM (inactive) | 10.8 µM (inactive) | 5.7 µM (inactive)
8 | C=C1C(=O)O[C@H]2[C@@H](O)[C@H](C)CCC[C@]3(C)O[C@H]3CC[C@@]3(C)O[C@@H]3C[C@@H]12 |  | 6.52 µM (inactive) | 7.66 µM (inactive) |  | 5.74 µM (inactive) |  | 5.15 µM (inactive) | 4.04 µM (inactive) |  | 9.2 µM (inactive) | 9.33 µM (inactive) | 6.49 µM (inactive) | 10.1 µM (inactive) | 6.04 µM (inactive) |  | 1.14 µM (inactive) | 1.52 µM (inactive) | 4.08 µM (inactive) | 6.81 µM (inactive) | 1.12 µM (inactive)
9 | CS/C(=N/S(=O)(=O)c1ccc(Cl)cc1)NCCCN/C(=N\S(=O)(=O)c1ccc(Cl)cc1)SC | 1.81 µM (inactive) | 23.6 µM (inactive) | 7.35 µM (inactive) | 15.7 µM (inactive) | 5.08 µM (inactive) | 14 µM (inactive) | 25.2 µM (inactive) |  | 12.1 µM (inactive) | 14.2 µM (inactive) |  |  | 31.1 µM (inactive) | 13 µM (inactive) | 10.2 µM (inactive) | 6.11 µM (inactive) | 45.6 µM (inactive) | 6.21 µM (inactive) | 64 µM (inactive) | 
10 | O=[N+]([O-])/C(C(Cl)=C(Cl)Cl)=C1\NCCO1 |  | > 100 µM (inactive) | 59.4 µM (inactive) | 45.8 µM (inactive) | > 100 µM (inactive) | > 100 µM (inactive) | > 100 µM (inactive) | > 100 µM (inactive) | > 100 µM (inactive) | > 100 µM (inactive) | > 100 µM (inactive) | > 100 µM (inactive) | > 100 µM (inactive) | > 100 µM (inactive) | > 100 µM (inactive) | > 100 µM (inactive) |  | > 100 µM (inactive) | > 100 µM (inactive) | > 100 µM (inactive)
11 | Nc1ncnc2c1ncn2-c1ccc([N+](=O)[O-])cn1 | > 100 µM (inactive) | > 100 µM (inactive) | > 100 µM (inactive) |  | > 100 µM (inactive) | > 100 µM (inactive) | > 100 µM (inactive) | > 100 µM (inactive) | > 100 µM (inactive) | > 100 µM (inactive) | > 100 µM (inactive) | > 100 µM (inactive) | > 100 µM (inactive) | > 100 µM (inactive) | > 100 µM (inactive) | > 10 µM (inactive) | > 100 µM (inactive) | > 100 µM (inactive) | > 100 µM (inactive) | 
12 | CC1CCCC(C(=O)CC2CC(=O)NC(=O)C2)C1=O (stereo not given) | > 100 µM (inactive) | > 100 µM (inactive) | > 100 µM (inactive) | > 100 µM (inactive) | > 100 µM (inactive) | > 100 µM (inactive) | > 100 µM (inactive) | > 100 µM (inactive) | > 100 µM (inactive) | > 100 µM (inactive) | > 100 µM (inactive) | > 100 µM (inactive) | > 100 µM (inactive) | > 100 µM (inactive) | > 100 µM (inactive) | > 100 µM (inactive) | > 100 µM (inactive) | > 100 µM (inactive) | > 100 µM (inactive) | 
13 | COC(=O)NNC(c1ccc(Cl)cc1)c1ccc(Cl)cc1 |  | 31 µM (inactive) | 19.9 µM (inactive) | 20.6 µM (inactive) | 19.5 µM (inactive) | 16.4 µM (inactive) | 17.1 µM (inactive) | 16.5 µM (inactive) |  | 12.4 µM (inactive) | 15.3 µM (inactive) | 16.3 µM (inactive) | 23.7 µM (inactive) | 12.5 µM (inactive) | 16.5 µM (inactive) | 22.2 µM (inactive) | 25.1 µM (inactive) | 12.2 µM (inactive) | 20.7 µM (inactive) | 19.6 µM (inactive)
14 | O=C(OCC(Cl)(Cl)Cl)N1CC[C@H](C2CCCCC2)C1 |  | 15.8 µM (inactive) | 15.3 µM (inactive) |  | 37.2 µM (inactive) | 19.5 µM (inactive) | 16.7 µM (inactive) | 14.9 µM (inactive) | 19.3 µM (inactive) | 15.8 µM (inactive) | 14.9 µM (inactive) | 15.3 µM (inactive) | 15.6 µM (inactive) | 17.6 µM (inactive) | 18.6 µM (inactive) | 21.1 µM (inactive) |  | 35.5 µM (inactive) |  | 17.1 µM (inactive)
15 | C/C=C/C(C/C=C(\C)CO[Si](C)(C)C(C)(C)C)O[Si](C)(C)C(C)(C)C (stereo not given) |  | > 100 µM (inactive) | > 100 µM (inactive) | > 100 µM (inactive) | > 100 µM (inactive) | > 100 µM (inactive) | > 100 µM (inactive) | > 100 µM (inactive) | > 100 µM (inactive) | > 100 µM (inactive) | > 100 µM (inactive) | > 100 µM (inactive) | > 100 µM (inactive) | > 100 µM (inactive) | > 100 µM (inactive) | > 100 µM (inactive) | > 100 µM (inactive) | > 100 µM (inactive) | > 100 µM (inactive) | > 100 µM (inactive)
16 | Cc1ccc2c(c1)[nH]c(=S)n2C=C(C(N)=O)C(N)=O | > 100 µM (inactive) | > 100 µM (inactive) | > 100 µM (inactive) |  | > 100 µM (inactive) | > 100 µM (inactive) | > 100 µM (inactive) | > 100 µM (inactive) | > 100 µM (inactive) | > 100 µM (inactive) | > 100 µM (inactive) | > 100 µM (inactive) | > 100 µM (inactive) | > 100 µM (inactive) | > 100 µM (inactive) |  | > 100 µM (inactive) | > 100 µM (inactive) | > 100 µM (inactive) | 
